# Test results reported in ChEMBL document CHEMBL4251736, “Discovery of Novel Diarylpyrimidine Derivatives as Potent HIV-1 NNRTIs Targeting the "NNRTI Adjacent" Binding Site” (ACS Med Chem Lett, 2018).
# Calls of active or inactive are those of the source. No cut-off for these calls is given here.
# Key:
# [1] = Cytotoxicity against human MT4 cells assessed as decrease in cell viability after 5 days by MTT assay; format: cell-based
# [2] = Selectivity index, ratio of CC50 for human MT4 cells to EC50 for wild type HIV1 3B; format: toxicity; conditions: read-out: Ratio CC50/EC50
# [3] = tested on: Human immunodeficiency virus 2; test: Antiviral activity against HIV2 ROD infected in human MT4 cells assessed as inhibition of virus-induced cytopathic effect after 5 days by MTT assay; format: functional, organism-based; conditions: ISOLATE ROD
# [4] = biological target: Human immunodeficiency virus type 1 reverse transcriptase (Human immunodeficiency virus 1, UniProt Q72547); test: Inhibition of recombinant wild type HIV1 reverse transcriptase assessed as decrease in biotin-dUTP incorporation using DIG-labeled dUTP/biotin-labeled dUTP and dTTP as template and viral nucleotides after 1 hr by ELISA
# [5] = tested on: Human immunodeficiency virus 1; test: Antiviral activity against wild type HIV1 3B infected in human MT4 cells assessed as inhibition of virus-induced cytopathic effect after 5 days by MTT assay; format: functional, organism-based; conditions: Human immunodeficiency virus 1, 3B, MT4, 120 h
# [6] = tested on: Human immunodeficiency virus 1; test: Antiviral activity against HIV1 harboring reverse transcriptase K103N mutant infected in human MT4 cells assessed as inhibition of viral replication after 5 days by MTT assay; format: functional, organism-based; conditions: Human immunodeficiency virus 1, MT4, 120 h
# [7] = tested on: Human immunodeficiency virus 1; test: Antiviral activity against HIV1 harboring reverse transcriptase E138K mutant infected in human MT4 cells assessed as inhibition of viral replication after 5 days by MTT assay; format: functional, organism-based; conditions: for EC50: Human immunodeficiency virus 1, MT4, 120 h
# [8] = tested on: Human immunodeficiency virus 1; test: Potency index, ratio of etravirine EC50 to compound EC50 for HIV1 harboring reverse transcriptase K103N mutant infected in human MT4 cells; format: functional
# [9] = tested on: Human immunodeficiency virus 1; test: Antiviral activity against HIV1 harboring reverse transcriptase L100I mutant infected in human MT4 cells assessed as inhibition of viral replication after 5 days by MTT assay; format: functional, organism-based; conditions: Human immunodeficiency virus 1, MT4, 120 h
# [10] = tested on: Human immunodeficiency virus 1; test: Antiviral activity against HIV1 RES056 harboring reverse transcriptase K103N/Y181C double mutant infected in human MT4 cells assessed as inhibition of viral replication after 5 days by MTT assay; format: functional, organism-based; conditions: Human immunodeficiency virus 1, RES056, MT4, 120 h
# [11] = tested on: Human immunodeficiency virus 1; test: Potency index, ratio of etravirine EC50 to compound EC50 for wild type HIV1 3B infected in human MT4 cells; format: functional
# [12] = tested on: Human immunodeficiency virus 1; test: Antiviral activity against HIV1 harboring reverse transcriptase Y181C mutant infected in human MT4 cells assessed as inhibition of viral replication after 5 days by MTT assay; format: functional, organism-based; conditions: Human immunodeficiency virus 1, MT4, 120 h
# [13] = tested on: Human immunodeficiency virus 1; test: Antiviral activity against HIV1 harboring reverse transcriptase Y188L mutant infected in human MT4 cells assessed as inhibition of viral replication after 5 days by MTT assay; format: functional, organism-based
# [14] = tested on: Human immunodeficiency virus 1; test: Antiviral activity against HIV1 harboring reverse transcriptase F227L/V106A double mutant infected in human MT4 cells assessed as inhibition of viral replication after 5 days by MTT assay; format: functional, organism-based; conditions: Human immunodeficiency virus 1, MT4, 120 h
# [15] = tested on: Human immunodeficiency virus 1; test: Fold resistance, ratio of EC50 for HIV1 harboring reverse transcriptase K103N mutant infected in human MT4 cells to EC50 for wild type HIV1 3B infected in human MT4 cells; format: functional
# [16] = tested on: Human immunodeficiency virus 1; test: Potency index, ratio of etravirine EC50 to compound EC50 for HIV1 harboring reverse transcriptase E138K mutant infected in human MT4 cells; format: functional
# [17] = tested on: Human immunodeficiency virus 1; test: Potency index, ratio of etravirine EC50 to compound EC50 for HIV1 harboring reverse transcriptase L100I mutant infected in human MT4 cells; format: functional
# [18] = tested on: Human immunodeficiency virus 1; test: Potency index, ratio of etravirine EC50 to compound EC50 for HIV1 harboring reverse transcriptase Y188L mutant infected in human MT4 cells; format: functional
# [19] = tested on: Human immunodeficiency virus 1; test: Potency index, ratio of etravirine EC50 to compound EC50 for HIV1 harboring reverse transcriptase Y181C mutant infected in human MT4 cells; format: functional
Structure (SMILES),CC50 at 120 h [1] [nM],selectivity ratio [2],inhibition [3],IC50 [4] [nM],EC50 [5] [nM],EC50 [6] [nM],EC50 [7] [nM],other results
Cc1cc(C#N)cc(C)c1Oc1nc(Nc2ccc(C#N)cc2)ncc1SCC(=O)NCC1CC1,5100 to 149000,152 to 15400,inactive,13 to 863,3.8,,,
O=C1Nc2ccc(Cl)cc2[C@@](C#CC2CC2)(C(F)(F)F)O1 [EFAVIRENZ],,,,,,81,,
Cc1cc(C#N)cc(C)c1Oc1nc(Nc2ccc(C#N)cc2)ncc1SCC(=O)NCCN1CCOCC1,5100 to 149000,152 to 15400,inactive,13 to 863,2.6 to 6.2,1.4 to 8.3,6 to 34.7,Ratio EC50 [8]: 1.3 - 2.3
C#CCNC(=O)CSc1cnc(Nc2ccc(C#N)cc2)nc1Oc1c(C)cc(C#N)cc1C,5100 to 149000,152 to 15400,inactive,23,2.4,1.4 to 8.3,6 to 34.7,EC50 [9]: 7.7 nM; EC50 [10]: > 100 nM; Ratio EC50 [11]: 1.6; EC50 [12]: 11.1 to 13.8 nM; inhibition [13]: Active; EC50 [14]: > 100 nM; Ratio EC50 [8]: 1.3 - 2.3
COC(=O)CCS(=O)(=O)c1cnc(Nc2ccc(C#N)cc2)nc1Oc1c(C)cc(C#N)cc1C,5100 to 149000,9,inactive,13 to 863,1560,,,
Cc1cc(C#N)cc(C)c1Oc1nc(Nc2ccc(C#N)cc2)ncc1SCC(=O)C(=O)O,5100 to 149000,152 to 15400,inactive,13 to 863,2.4 to 216,,,
Cc1cc(C#N)cc(C)c1Oc1nc(Nc2ccc(C#N)cc2)ncc1SCC(=O)NC1CCN(C(=O)OC(C)(C)C)CC1,5100 to 149000,152 to 15400,inactive,13 to 863,< 10,1.4 to 44.9,6 to 157,Ratio EC50 [15]: 0.4 - 1.9
Cc1ccnc2c1NC(=O)c1cccnc1N2C1CC1,,,,,,,,inhibition [7]: Active
COCCNC(=O)CSc1cnc(Nc2ccc(C#N)cc2)nc1Oc1c(C)cc(C#N)cc1C,5100 to 149000,152 to 15400,inactive,26,3.8,1.4 to 8.3,6 to 34.7,EC50 [10]: > 100 nM; inhibition [13]: Active; EC50 [14]: > 100 nM; Ratio EC50 [8]: 1.3 - 2.3
Cc1cc(C#N)cc(C)c1Oc1nc(Nc2ccc(C#N)cc2)ncc1SCC(=O)NCCCN1CCOCC1,27200,10000,inactive,84 to 86,2.6,1.4,6,"Ratio EC50 [16]: 1.5 - 3; EC50 [9]: 6.5 nM; EC50 [10]: > 100 nM; Ratio EC50 [17]: 1.5 - 3; Ratio EC50 [11]: 1.5; Ratio EC50 [18]: 1.5 - 3; EC50 [12]: 11.6 nM; Ratio EC50 [19]: 1.5 - 3; EC50 ([13]; Human immunodeficiency virus 1, MT4, 120 h): 16.2 nM; EC50 [14]: > 100 nM; Ratio EC50 [8]: 1.5 - 3"
COC(=O)CCSc1cnc(Nc2ccc(C#N)cc2)nc1Oc1c(C)cc(C#N)cc1C,5100 to 149000,152 to 15400,inactive,13 to 863,60.2,,,
Cc1cc(C#N)cc(C)c1Oc1nc(Nc2ccc(C#N)cc2)ncc1SCC(=O)N1CC[C@H](NC(=O)OC(C)(C)C)C1,5100 to 149000,152 to 15400,inactive,13 to 863,33.9,,,
COC(=O)CSc1cnc(Nc2ccc(C#N)cc2)nc1Oc1c(C)cc(C#N)cc1C,5100 to 149000,152 to 15400,inactive,13 to 863,65.9,,,
Cc1cc(C#N)cc(C)c1Oc1nc(Nc2ccc(C#N)cc2)ncc1SCC(=O)N1CCN(C(=O)OC(C)(C)C)CC1,5100 to 149000,152 to 15400,inactive,13 to 863,88.5,,,
COC(=O)CS(=O)(=O)c1cnc(Nc2ccc(C#N)cc2)nc1Oc1c(C)cc(C#N)cc1C,5100 to 149000,152 to 15400,inactive,13 to 863,68.8,,,
Cc1cc(C#N)cc(C)c1Oc1nc(Nc2ccc(C#N)cc2)ncc1SCC(N)=O,5100 to 149000,152 to 15400,inactive,13 to 863,2.4 to 216,1.4 to 44.9,6 to 34.7,Ratio EC50 [15]: 0.4 - 1.9
C=CCNC(=O)CSc1cnc(Nc2ccc(C#N)cc2)nc1Oc1c(C)cc(C#N)cc1C,5100 to 149000,152 to 15400,inactive,13 to 863,2.4 to 3.8,1.4 to 8.3,6 to 34.7,Ratio EC50 [8]: 1.3 - 2.3
Cc1cn([C@H]2C[C@H](N=[N+]=[N-])[C@@H](CO)O2)c(=O)[nH]c1=O [ZIDOVUDINE],,,,,,,38.6,EC50 [9]: 8.3 nM; EC50 [12]: 14.1 nM
Cc1cc(C#N)cc(C)c1Oc1nc(Nc2ccc(C#N)cc2)ncc1SCC(=O)NCCN1CCN(C(=O)OC(C)(C)C)CC1,5100 to 149000,152 to 15400,inactive,13 to 863,32.6,1.4 to 44.9,6 to 157,Ratio EC50 [15]: 0.4 - 1.9
Cc1cc(C#N)cc(C)c1Oc1nc(Nc2ccc(C#N)cc2)ncc1SCC(=O)Nc1ccc(S(C)(=O)=O)cc1,5100 to 149000,152 to 15400,inactive,13 to 863,< 10,1.4 to 8.3,6 to 34.7,
Cc1cc(C#N)cc(C)c1Oc1nc(Nc2ccc(C#N)cc2)ncc1SCC(=O)NCc1ccc(O)cc1,5100 to 149000,152 to 15400,inactive,13 to 863,< 10,1.4 to 8.3,6 to 34.7,
Cc1cc(C#N)cc(C)c1Oc1nc(Nc2ccc(C#N)cc2)ncc1SCC(=O)NC1CC1,5100 to 149000,152 to 15400,inactive,21,2.4,1.4 to 8.3,6 to 34.7,EC50 [10]: > 100 nM; Ratio EC50 [11]: 1.6; EC50 [12]: 11.1 to 13.8 nM; inhibition [13]: Active; EC50 [14]: > 100 nM; Ratio EC50 [8]: 1.3 - 2.3
Cc1cc(C#N)cc(C)c1Oc1nc(Nc2ccc(C#N)cc2)ncc1SCC(=O)N1CCSCC1,5100 to 149000,152 to 15400,inactive,13 to 863,38.3,1.4 to 44.9,6 to 157,Ratio EC50 [15]: 0.4 - 1.9
Cc1cc(C#N)cc(C)c1Oc1nc(Nc2ccc(C#N)cc2)ncc1SCC(=O)NCC1CCCO1 (stereo unspecified),5100 to 149000,152 to 15400,inactive,13 to 863,< 10,1.4 to 8.3,6 to 34.7,
